Consider two compounds from patent US9555135B2, “Cobalt-based MRI contrast agent and imaging system” (BOARD OF REGENTS, THE UNIVERSITY OF TEXAS SYSTEM, priority 2011, dated 2017).

Data set [1] deals with androgen receptor (Homo sapiens, UniProt P10275). The following applies: concentration; cited from earlier work.
A short description of data set [2]: Pharmacokinetic arm: cobalt disposition in plasma, tissues, urine and feces after intraprostatic CoCl2-NAC injection, total cobalt by ICP. In kind it is in vivo, rat. The method, then: (§1) A toxicity and pharmacokinetic study of intraprostatically-administered cobalt dichloride-N-acetyl cysteine (CoCl2-NAC) was conducted in a rat model by the Pharmaceutical Development Center in the Department of Veterinary Medicine and Surgery (DVMS) facilities, U.T.M.D. Anderson Cancer Center, (Houston, Tex.). CoCl2-NAC is a novel MRI marker for prostate brachytherapy under development for use in localization of implanted radioactive seeds under MRI. […] The purpose of this study was to evaluate the distribution and potential toxicity of Co-NAC systemic exposure secondary to potential leakage from in-situ rupture of the Co-NAC-ECAMs in a male rat model.
The volume of CoCl2-NAC injected (9 μl) was predetermined on the assumption of 80-120 seeds leaking into the human prostate following implantation and scaling to a 150 gram male rat model. Cobalt disposition in plasma and tissues and organ toxicity were evaluated. For the pharmacokinetic arm, 60 male rats (20/group) were assigned to two dose groups and a vehicle control group and administered 1% (low concentration) and 10% (high concentration) CoCl2-NAC or vehicle control as an injection into the prostate. Following dosing, one cohort of 5 animals from each dose-level was sacrificed at 5, 30, and 60 minutes and 6 hours following the end of drug administration. Specific tissues (spleen, heart, brain, prostate, lung, kidney, liver, gut) from all animals were harvested, blotted, and weighed. An additional 3 animals were administered the high concentration and were maintained individually in metabolic cages. Urine and feces were collected at the end of 60 min, 6 and 24 hr intervals on the day prior to dosing and post dosing the following day. All samples were analyzed for total cobalt content by inductively-coupled plasma (ICP) analysis. For the toxicity arm, 30 male rats (10/group) were assigned to two dose groups and a vehicle control group and administered 1% and 10% CoCl2-NAC or vehicle control injected into the prostate. […]

Data set [3] can be described thus: Toxicity arm: single intraprostatic CoCl2-NAC injection, clinical pathology, gross and microscopic pathology. In kind it is in vivo, rat. The method, then:
as §1
The volume of CoCl2-NAC injected (9 μl) was predetermined on the assumption of 80-120 seeds leaking into the human prostate following implantation and scaling to a 150 gram male rat model. Cobalt disposition in plasma and tissues and organ toxicity were evaluated. For the pharmacokinetic arm, 60 male rats (20/group) were assigned to two dose groups and a vehicle control group and administered 1% (low concentration) and 10% (high concentration) CoCl2-NAC or vehicle control as an injection into the prostate. Following dosing, one cohort of 5 animals from each dose-level was sacrificed at 5, 30, and 60 minutes and 6 hours following the end of drug administration. Specific tissues (spleen, heart, brain, prostate, lung, kidney, liver, gut) from all animals were harvested, blotted, and weighed. An additional 3 animals were administered the high concentration and were maintained individually in metabolic cages. Urine and feces were collected at the end of 60 min, 6 and 24 hr intervals on the day prior to dosing and post dosing the following day. All samples were analyzed for total cobalt content by inductively-coupled plasma (ICP) analysis. For the toxicity arm, 30 male rats (10/group) were assigned to two dose groups and a vehicle control group and administered 1% and 10% CoCl2-NAC or vehicle control injected into the prostate. Groups of animals were sacrificed and necropsied on Study Days 1 (24 hrs) and 14 and blood and tissues collected for evaluation of clinical pathology and organ toxicity.

Data set [4] is described as follows: Relaxivity measurements on 1.5-T clinical MRI scanner. The data set is classed as physicochemical. As for the experimental part: All studies were performed on a 1.5-T clinical MRI scanner (Excite HD, GE Healthcare Technologies, Waukesha, Wis.) equipped with a high-performance gradient hardware package (Cardiac Resonance Module) and multichannel, fast-receiver hardware. The maximal achievable slew rate was 120 mT/m/s, maximal amplitude was 23 mT/m, and receiver bandwidth was 500 kHz. For relaxation measurements, the samples were placed in a room temperature water bath and imaged using a quadrature knee coil. T1-weighted measurements used an inversion recovery spin-echo technique (repetition time [TR]/[…] [TE], 5,000 ms/10 ms; inversion time, 50-4,000 ms). The T2-weighted measurements used a spin echo sequence (TR, 5,000 ms; TE, 20-1,000 ms). T2*-weighted measurements used a multi-echo, fast, gradient echo acquisition (TR, 600 ms; TE, 2-57 ms, with an echo spacing of 3.3 ms). All imaging data were analyzed using in-house software written in MATLAB (MathWorks, Natick, Mass.). The MRI sequences used for the ex vivo experiments have previously been described (see, Shetty, A. M., et al., Journal of Magnetic Resonance Imaging, Vol. 26, pp. 1672-1677 (2007)) and used a high-resolution, three-dimensional, spoiled gradient recalled echo acquisition (TR/TE, 15.6 ms/2.5 ms; flip angle, 60°; voxel size, 0.4×0.4×0.8 mm, receiver bandwidth, 488.3 Hz/pixel). The large flip angle was used to accentuate the signal from the ECAMs (with lower T1-weighted relaxation times) against the background. The high bandwidth and short echo time were chosen to minimize susceptibility artifacts in the region of the titanium markers.
Relaxivity measurements were obtained using the slope of the weighted least-squares regression of the relaxation rate versus concentration. […] The ratio of the relaxivities were >1 (r2/r1=1.21±0.29), which is consistent with T1-weighted positive contrast agents.

Data set [5] is described as follows: T1-weighted MRI visualization of contrast agent in seeds in agarose phantom. As for the experimental part: Initially, the titanium and acrylic seeds were custom designed to have an outer and inner diameter of 3 mm and 1.5 mm and an outer length and inner hollow length of 4.5 mm and 3.5 mm, respectively. After injection of the cobalt-chloride complex contrast (CoCl2-NAC) agent into the manufactured seeds, MRI was performed on the seeds and strand-like combinations. For the canine prostate experiments, standard nonradioactive titanium seeds were incorporated into a synthesized strand, with acrylic and glass tubes cut with an outer diameter of 0.8 mm and length of 5.5 mm, injected with the CoCl2-NAC agent ([…]), and closed on the ends with two polymer taps.
All studies involving animals or animal tissues were performed under an Institutional Animal Care and Use Committee-approved protocol. For this experiment, after completion of another investigator's in vivo experiments, a canine prostate was excised at necropsy, placed in normal saline, and fixed in agarose gel (10% by weight, Type-A, Sigma-Aldrich, St. Louis, Mo.). The ECAMs were subsequently inserted into the prostate and imaged using MRI. Similarly, the ECAMs were inserted into an in-house-manufactured agarose phantom for direct visualization. The signal intensities of the agarose and prostatic tissue were similar on T1 weighted MRI, allowing substantial preliminary assessment of the relative contrast of the ECAMs without a tissue-based phantom. 1.5-T MRI T1-weighted sequences for imaging marker experiments.
All studies were performed on a 1.5-T clinical MRI scanner (Excite HD, GE Healthcare Technologies, Waukesha, Wis.) equipped with a high-performance gradient hardware package (Cardiac Resonance Module) and multichannel, fast-receiver hardware. The maximal achievable slew rate was 120 mT/m/s, maximal amplitude was 23 mT/m, and receiver bandwidth was 500 kHz. For relaxation measurements, the samples were placed in a room temperature water bath and imaged using a quadrature knee coil. T1-weighted measurements used an inversion recovery spin-echo technique (repetition time [TR]/[…] [TE], 5,000 ms/10 ms; inversion time, 50-4,000 ms). The T2-weighted measurements used a spin echo sequence (TR, 5,000 ms; TE, 20-1,000 ms). T2*-weighted measurements used a multi-echo, fast, gradient echo acquisition (TR, 600 ms; TE, 2-57 ms, with an echo spacing of 3.3 ms). All imaging data were analyzed using in-house software written in MATLAB (MathWorks, Natick, Mass.). […]

Sequence of androgen receptor (P10275 whole entry, species assumed): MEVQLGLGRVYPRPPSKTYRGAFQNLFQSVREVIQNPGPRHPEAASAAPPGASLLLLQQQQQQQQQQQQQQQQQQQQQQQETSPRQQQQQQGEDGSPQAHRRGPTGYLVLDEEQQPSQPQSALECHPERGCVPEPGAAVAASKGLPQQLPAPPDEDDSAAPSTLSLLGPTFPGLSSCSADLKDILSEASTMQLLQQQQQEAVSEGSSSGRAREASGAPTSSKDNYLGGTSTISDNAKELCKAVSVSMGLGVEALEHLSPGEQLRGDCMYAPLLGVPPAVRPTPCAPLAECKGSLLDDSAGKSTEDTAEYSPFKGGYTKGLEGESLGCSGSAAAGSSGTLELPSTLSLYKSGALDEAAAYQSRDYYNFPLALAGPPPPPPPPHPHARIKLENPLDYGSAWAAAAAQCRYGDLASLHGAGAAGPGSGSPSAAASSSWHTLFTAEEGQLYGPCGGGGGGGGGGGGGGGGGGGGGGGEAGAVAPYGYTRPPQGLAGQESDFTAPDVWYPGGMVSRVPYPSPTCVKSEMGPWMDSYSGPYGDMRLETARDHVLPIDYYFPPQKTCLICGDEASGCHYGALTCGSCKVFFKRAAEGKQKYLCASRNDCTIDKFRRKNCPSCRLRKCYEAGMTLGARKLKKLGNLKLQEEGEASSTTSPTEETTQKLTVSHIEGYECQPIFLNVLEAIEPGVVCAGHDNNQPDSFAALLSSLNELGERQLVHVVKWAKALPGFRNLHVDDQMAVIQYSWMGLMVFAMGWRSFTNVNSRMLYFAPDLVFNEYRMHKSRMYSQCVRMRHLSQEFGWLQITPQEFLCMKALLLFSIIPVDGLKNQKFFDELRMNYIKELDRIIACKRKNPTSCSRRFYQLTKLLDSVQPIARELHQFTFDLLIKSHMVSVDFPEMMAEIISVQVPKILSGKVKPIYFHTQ

Take `CC(C)(O)C(=O)Nc1ccc([N+](=O)[O-])c(C(F)(F)F)c1` [hydroxyflutamide]: in data set [1], the “effect on transcriptional activity of androgen receptor” value was “enhance the transcriptional activity”.

For the compound `CC(=O)N[C@@H](CS)C(=O)O.[Cl][Co][Cl]` [CoCl2-NAC, cobalt-dichloride-N-acetyl cysteine], the “peri-prostatic cobalt concentration by 60 minutes” value in data set [2] (high dose group (10%), 4 of 5 animals) is listed as “not quantifiable”. In data set [2] (low dose group (1%)), the “cobalt in kidney tissue” value is reported as “No cobalt was measurable” and the cobalt in plasma entry is “no measurable cobalt”. Besides, the “alterations in group means of hematological or clinical chemistry parameters” value in data set [3] (1% and 10% CoCl2-NAC, Study Days 1 and 14) was “No toxicologically-important dose-related alterations”. For the same compound, the “microscopic examination (histopathology)” value in data set [3] (1% and 10% CoCl2-NAC, any of the tested dose levels) is listed as “no histopathologic lesions”. Moreover, the “test article-related morbidity or mortality” value in data set [3] (1% and 10% CoCl2-NAC, intraprostatic, male rat) is “No test article-related morbidity or mortality”. In addition, the “no-observed-adverse-effect-level (NOAEL)” value in data set [3] (single intra-prostatic administration, male rat, highest dose tested) is reported as 10 % CoCl2-NAC solution. In addition, in data set [3] (toxicology arm, 1% and 10% CoCl2-NAC), the “test article-related adverse clinical signs” value was “No test article-related adverse clinical signs”. Also, in data set [4], the “ratio of the relaxivities r2/r1” value is given as 1.21±0.29. Also, in data set [4] (room temperature water bath), the “spin-lattice relaxivity (r1)” value amounted to 0.093 ± 0.022 mM⁻¹ s⁻¹ and the “spin-spin relaxivity (r2)” value stood at 0.105 ± 0.01 mM⁻¹ s⁻¹. Further, in data set [5] (0.5-5 μL of aqueous solution (0.3-10 wt. %), phantom, 1.5-T MRI), the “visualization of acrylic and glass hollow seeds containing the agent” value is reported as “well visualized”. Also, in data set [5] (T1-weighted MRI, phantom), the “visualization inside the titanium seed” value is “could not be visualized”. The “signal on T1-weighted MRI inside polymer seeds” value in data set [5] (concentrations of 0.5-10%, in phantom) is “increased signal”. In addition, the “signal on three-dimensional T1-weighted spoiled gradient recalled acquisition, compared with the various agents tested” value in data set [5] (in phantom) was “highest signal”.
